Test results: EP0435794A1, “Alkenyl- or heteroaryl thio, sulfone, sulfoxy herbicides” (RHONE-POULENC AGROCHIMIE, priority 1989, dated 1991)

What was measured:
Assay type in all cases: in vivo
Echinochloa crus galli [1] = assay: Exemple D: herbicide application pre or post emergence on submerged plants (rice paddy model); settings: 24 days; for % d'efficacité ECHINOCHLOA CRUS GALLI (1 feuille): 1-leaf stage; for % d'efficacité ECHINOCHLOA CRUS GALLI (prélevée): pre-emergence
Text: (§1) Exemple D : Application herbicide en pré ou post levée d'espèces végétales submergées (modèle rizière)
(§2) Dans des pots de 9 x 9 x 9 cm remplis de terre agricole on sème un nombre de graines ou on plante un nombre de bulbes ou rhizomes déterminé en fonction de l'espèce végétale ou de la grosseur des organes. Pour le riz, 4 plants au stade 2-3 feuilles sont transplantés dans un pot rempli de terre végétale 4 jours avant le traitement.
(§3) Les pots sont ensuite immergés dans un bac de taille adapté aux pots de manière à ce que l'eau recouvre de 1 à 2 cm la surface du sol.
(§4) Le stade de traitement est le stade prélevée ou 1 à 2 feuilles développées des adventices. Le traitement est effectué par répartition de la bouillie dans l'eau de submersion en quantité correspondant à une dose d'application de 500 l/ha et contenant la matière active à la concentration requise.
(§5) La bouillie utilisée pour le traitement est une solution ou suspension de la matière active dans un mélange acétone/eau en proportion 50/50, en présence de 0,05 % en poids de Cemulsol NP 10 (agent tensioactif constitué d'alkylphénol polyéthoxylé, notamment de nonylphénol polyéthoxylé) et 0,04 % en poids de tween 20 (agent tensio-actif constitué d'un oléate de dérivé polyoxyéthyléné du sorbitol).
(§6) Dans le cas d'une suspension, celle-ci est obtenue en mélangeant et broyant les ingrédients dans un microniseur de façon à obtenir une grosseur moyenne de particules inférieures à 40 microns.
(§7) Le niveau d'eau de submersion est ensuite maintenu par apport d'eau tout au long de la durée de l'expérimentation soit […]. Les bacs contenant les pots sont placés dans une serre régulée en température à 18°C la nuit et 22°C le jour et en humidité à 70 % d'humidité relative.
(§8) Au bout de 24 jours, on compte le nombre de plantes vivantes dans les pots traités par la bouillie contenant la matière active à tester et le nombre de plantes vivantes dans un pot témoin traité selon les mêmes conditions, mais au moyen d'une bouillie ne contenant pas de matière active. On mesure ainsi un pourcentage (D) des destructions du nombre de pieds dans le pot traité par rapport au nombre de plantes dans les pots non traités (témoin). On mesure, sur les plantes traitées restantes, le pourcentage de réduction de taille (RT) par rapport aux plantes témoin. Le pourcentage du volume foliaire non détruit par le produit est donc donné par la formule: ([100-D] x [100-RT])/(100)= A [formula]
(§9) Cette valeur A est transformée en notation de 0 à 5 selon l'échelle suivante:
(§10) Les résultats obtenus sont présentés dans le tableau suivant pour des doses d'application de 500, 1000 ou 2000 g de matière active par hectare.

CYPERUS SEROTINUS = assay: as above; settings: 24 days; for % d'efficacité CYPERUS SEROTINUS (1 feuille): 1-leaf stage; for % d'efficacité CYPERUS SEROTINUS (prélevée): pre-emergence
Text: as §1, §2, §3, §4, §5, §6, §7, §8, §9, §10

ALISMA CANALICULATUM = assay: as above; settings: 2-leaf stage, 24 days
Text: as §1, §2, §3, §4, §5, §6, §7, §8, §9, §10

[2] = tested on: ORYSA SATIVA Cv Nihonbare; assay: Exemple D: herbicide application on submerged plants (rice paddy model), transplanted rice; settings: rice transplanted 4 days before treatment, 24 days
Text: as §1, §2, §3, §4, §5, §6, §7, §8, §9, §10
COMPOSE N°5/RIZ (transplanté 4 jours avant traitement)

Alopecurus myosuroïdes = assay: Exemple A: herbicide application, pre-emergence; settings: notation 0 à 5 after 24 days
Text: (§11) Exemple A - Application herbicide, en prélevée des espèces végétales
(§12) Dans des pots de 7 x 7 x 8 cm remplis de terre agricole légère, on sème un nombre de graines déterminé en fonction de l'espèce végétale et de la grosseur de la graine.
(§13) Les pots sont traités par pulvérisation de bouillie en quantité correspondant à une dose volumique d'application de 500 l/ha et contenant la matière active à la concentration désirée.
(§14) Le traitement avec la bouillie est donc effectué sur des graines non recouvertes de terre (on utilise le terme de bouillie pour désigner, en général, les compositions diluées à l'eau, telles qu'on les applique sur les végétaux).
(§15) La bouillie utilisée pour le traitement est une solution ou suspension de la matière active dans un mélange acétone/eau en proportions 50/50, en présence de 0,05 % en poids de cemulsol NP 10 (agent tensio-actif) constitué d'alkylphénol polyéthoxylé, notamment de nonylphénol polyéthoxylé) et 0,04 % en poids de tween 20 (agent tensio-actif constitué d'un oléate de dérivé polyoxyéthyléné du sorbitol).
(§16) Dans le cas d'une suspension, celle-ci est obtenue en mélangeant et broyant les ingrédients dans un microniseur de façon à obtenir une grosseur moyenne de particules inférieure à 40 microns.
(§17) Après traitement, on recouvre les graines d'une couche de terre d'environ 3 mm d'épaisseur.
(§18) Les pots sont alors placés dans des bacs destinés à recevoir l'eau d'arrosage, en subirrigation, et maintenus pendant 24 jours à température ambiante sous 70 % d'humidité relative.
(§19) Le relevé est effectué de la façon suivante:
(§20) Au bout de 24 jours, on mesure un pourcentage (D) des destructions du nombre de pieds dans le pot traité par rapport au nombre de plantes dans les pots non traités (témoin). On mesure, sur les plantes traitées restantes, le pourcentage de réduction de taille (RT) par rapport aux plantes témoin.
(§21) Le pourcentage du volume foliaire non détruit par le produit est donc donné par la formule: ([100-D] x [100-RT])/(100)= A [formula]
as §9
(§22) Les résultats obtenus sont présentés après l'exemple B pour des doses d'application de 4000 g/ha à 1000 g/ha.
(§23) Les espèces végétales utilisées dans ces exemples A et B sont: […]

Echinochloa crus galli [3] = assay: Exemple A: herbicide application, pre-emergence; settings: notation 0 à 5 after 24 days
Text: as §11, §12, §13, §14, §15, §16, §17, §18, §19, §20, §21, §9, §22, §23

Cyperus esculentus = assay: Exemple A: herbicide application, pre-emergence; settings: notation 0 à 5 after 24 days
Text: as §11, §12, §13, §14, §15, §16, §17, §18, §19, §20, §21, §9, §22, §23

Avena fatua = assay: Exemple A: herbicide application, pre-emergence; settings: notation 0 à 5 after 24 days
Text: as §11, §12, §13, §14, §15, §16, §17, §18, §19, §20, §21, §9, §22, §23

Digitaria sanguinalis = assay: Exemple A: herbicide application, pre-emergence; settings: notation 0 à 5 after 24 days
Text: as §11, §12, §13, §14, §15, §16, §17, §18, §19, §20, §21, §9, §22, §23

[4] = 500 g de matière active par hectare
[5] = 1000 g de matière active par hectare
[6] = 2000 g de matière active par hectare

Row | SMILES | % d'efficacité ECHINOCHLOA CRUS GALLI (1 feuille) (Echinochloa crus galli [1]; [4]) | % d'efficacité ECHINOCHLOA CRUS GALLI (1 feuille) (Echinochloa crus galli [1]; [5]) | % d'efficacité ECHINOCHLOA CRUS GALLI (prélevée) (Echinochloa crus galli [1]; [4]) | % d'efficacité ECHINOCHLOA CRUS GALLI (prélevée) (Echinochloa crus galli [1]; [5]) | % d'efficacité CYPERUS SEROTINUS (1 feuille) (CYPERUS SEROTINUS; [4]) | % d'efficacité CYPERUS SEROTINUS (1 feuille) (CYPERUS SEROTINUS; [5]) | % d'efficacité CYPERUS SEROTINUS (prélevée) (CYPERUS SEROTINUS; [4]) | % d'efficacité CYPERUS SEROTINUS (prélevée) (CYPERUS SEROTINUS; [5]) | % d'efficacité ALISMA CANALICULATUM (2 feuilles) (ALISMA CANALICULATUM; [4]) | % d'efficacité ALISMA CANALICULATUM (2 feuilles) (ALISMA CANALICULATUM; [5]) | % d'efficacité ORYSA SATIVA Cv Nihonbare [2, 4] | % d'efficacité ORYSA SATIVA Cv Nihonbare [2, 5] | ACTIVITE HERBICIDE DE PRELEVEE ALO (Alopecurus myosuroïdes; dose 1 Kg m.a./ha) | ACTIVITE HERBICIDE DE PRELEVEE ECH (Echinochloa crus galli [3]; dose 1 Kg m.a./ha) | ACTIVITE HERBICIDE DE PRELEVEE CYP (Cyperus esculentus; dose 1 Kg m.a./ha) | ACTIVITE HERBICIDE DE PRELEVEE ALO (Alopecurus myosuroïdes; dose 4 Kg m.a./ha) | ACTIVITE HERBICIDE DE PRELEVEE ECH (Echinochloa crus galli [3]; dose 4 Kg m.a./ha) | ACTIVITE HERBICIDE DE PRELEVEE CYP (Cyperus esculentus; dose 4 Kg m.a./ha) | ACTIVITE HERBICIDE DE PRELEVEE AVE (Avena fatua; dose 4 Kg m.a./ha) | ACTIVITE HERBICIDE DE PRELEVEE DIG (Digitaria sanguinalis; dose 4 Kg m.a./ha) | further results
1 | CCCCOCN(C(=O)CCl)c1c(CC)cccc1CC [Butachlor, reference compound] | 1 (70 à 90) | 4 (10 à 30) | 5 (0 à 10) | 5 (0 à 10) | 0 (90 à 100) | 1 (70 à 90) | 0 (90 à 100) | 1 (70 à 90) | 4 (10 à 30) | 5 (0 à 10) | 0 (90 à 100) | 0 (90 à 100) |  |  |  |  |  |  |  |  | 
2 | C=C(CS(=O)(=O)c1cccs1)c1cccc(F)c1 [compound 3, 2-(3-fluorophényl) 1-(2-thiénylsulfonyl) 2-propène] |  |  |  |  |  |  |  |  |  |  |  |  | 5 (O à 10) | 5 (O à 10) | 5 (O à 10) |  |  |  |  |  | ACTIVITE HERBICIDE DE PRELEVEE AVE (Avena fatua; dose 1 Kg m.a./ha): 1 (70 à 90); ACTIVITE HERBICIDE DE PRELEVEE DIG (Digitaria sanguinalis; dose 1 Kg m.a./ha): 5 (O à 10)
3 | C=C(CS(=O)(=O)c1cccs1)c1cccc(Cl)n1 [compound 4, 2-(6-chloro 2-pyridyl) 1-(2-thiénylsulfonyl) 2-propène] |  |  |  |  |  |  |  |  |  |  |  |  |  |  |  | 5 (O à 10) | 5 (O à 10) | 5 (O à 10) | 3 (30 à 50) | 5 (O à 10) | 
4 | C=C(CS(=O)(=O)c1sccc1Cl)c1cccc(F)c1 [compound 5, 1-[(3-chloro 2-thiényl)sulfonyl] 2-(3-fluorophényl) 2-propène] | 4 (10 à 30) | 4 (10 à 30) | 5 (0 à 10) | 5 (0 à 10) | 3 (30 à 50) | 4 (10 à 30) | 2 (50 à 70) | 5 (0 à 10) | 3 (30 à 50) | 4 (10 à 30) | 0 (90 à 100) | 0 (90 à 100) |  |  |  | 5 (O à 10) | 5 (O à 10) | 5 (O à 10) | 5 (O à 10) | 5 (O à 10) | % d'efficacité ECHINOCHLOA CRUS GALLI (1 feuille) (Echinochloa crus galli [1]; [6]): 4 (10 à 30); % d'efficacité ECHINOCHLOA CRUS GALLI (prélevée) (Echinochloa crus galli [1]; [6]): 5 (0 à 10); % d'efficacité CYPERUS SEROTINUS (1 feuille) (CYPERUS SEROTINUS; [6]): 5 (0 à 10); % d'efficacité CYPERUS SEROTINUS (prélevée) (CYPERUS SEROTINUS; [6]): 5 (0 à 10); % d'efficacité ALISMA CANALICULATUM (2 feuilles) (ALISMA CANALICULATUM; [6]): 4 (10 à 30); % d'efficacité ORYSA SATIVA Cv Nihonbare [2, 6]: 0 (90 à 100)
5 | C=C(CS(=O)(=O)c1cccs1)c1cc(F)cc(F)c1 [compound 7, 2-(3,5-difluorophényl) 1-(2-thiénylsulfonyl) 2-propène] |  |  |  |  |  |  |  |  |  |  |  |  | 5 (O à 10) | 5 (O à 10) | 1 (70 à 90) |  |  |  |  |  | ACTIVITE HERBICIDE DE PRELEVEE AVE (Avena fatua; dose 1 Kg m.a./ha): 1 (70 à 90); ACTIVITE HERBICIDE DE PRELEVEE DIG (Digitaria sanguinalis; dose 1 Kg m.a./ha): 5 (O à 10)
6 | C=C(CS(=O)(=O)c1sccc1Br)c1cccc(F)c1 [compound 9, 1-[(3-bromo 2-thiényl)sulfonyl] 2-(3-fluorophényl)2-propène] |  |  |  |  |  |  |  |  |  |  |  |  |  |  |  | 5 (O à 10) | 5 (O à 10) | 4 (10 à 30) | 5 (O à 10) | 5 (O à 10) | 
